Laboratory results as given in patent US12116358B2, “Substituted indoles and methods of use thereof” (EPIZYME, INC., priority 2018, dated 2024).

Biological target: T1, SETD2(1434-1711) (Homo sapiens, UniProt Q9BYW2)
T1 construct: SETD2 (1434-1711) Assay; catalogue N/A
T1 sequence (Q9BYW2 1434-1711): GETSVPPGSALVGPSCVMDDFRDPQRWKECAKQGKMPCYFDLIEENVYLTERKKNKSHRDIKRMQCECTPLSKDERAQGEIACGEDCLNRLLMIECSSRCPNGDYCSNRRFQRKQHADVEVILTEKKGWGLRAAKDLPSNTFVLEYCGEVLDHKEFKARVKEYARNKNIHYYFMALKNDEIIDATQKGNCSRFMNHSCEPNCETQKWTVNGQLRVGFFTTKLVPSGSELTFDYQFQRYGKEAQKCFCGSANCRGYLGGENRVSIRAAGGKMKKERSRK
Assay: SETD2 (1434-1711) assay
Type: biochemical
Details: read-out: SETD2 (1434-1711)

SMILES	IC50 [µM]
Cc1cccc2cc(C(=O)NCc3ccccc3N3CCNCC3)[nH]c12 [compound 636]	16.8
COC(=O)CC(NC(=O)c1cc2cccc(C)c2[nH]1)c1cccs1 (stereo not drawn) [compound 650]	> 23
Cc1cccc2cc(C(=O)NCCc3ccc(Cl)cc3N3CCOCC3)[nH]c12 [compound 653]	> 25
Cc1cccc2cc(C(=O)N[C@@H]3C[C@@H]4CC[C@H]3CN4C(=O)CCCN)[nH]c12 [compound 657]	25.7
Cc1cccc2cc(C(=O)NC(c3ccccn3)C3CC3)[nH]c12 (stereo not drawn) [compound 660]	27.9
Cc1cccc2cc(C(=O)N[C@H]3CC[C@H](NS(=O)(=O)CCN)CC3)[nH]c12 [compound 661]	28.7
Cc1cccc2cc(C(=O)N[C@H]3CC[C@@H](CO)CC3)[nH]c12 [compound 662]	29.7
Cc1cccc2cc(C(=O)NC3CCN(S(=O)(=O)CCCN)CC3)[nH]c12 [compound 663]	31.5
Cc1cccc2cc(C(=O)NC3CCCN(C(=O)CCCN)C3)[nH]c12 (stereo not drawn) [compound 664]	31.7
Cc1cccc2cc(C(=O)Nc3cncnc3)[nH]c12 [compound 665]	32.7
COC(=O)C[C@@H](NC(=O)c1cc2cccc(C)c2[nH]1)c1ccccc1 [compound 666]	> 33
Cc1cccc2cc(C(=O)NC(c3cccc(CC(N)=O)n3)C3CC3)[nH]c12 (stereo not drawn) [compound 667]	34.5
CCC(NC(=O)c1cc2cccc(C)c2[nH]1)c1nc(C)no1 (stereo not drawn) [compound 668]	34.5
COC(=O)CC(NC(=O)c1cc2cccc(C)c2[nH]1)c1cccc(Br)c1 (stereo not drawn) [compound 669]	35.2
CC(=O)N1CCC(NC(=O)c2cc3cccc(C)c3[nH]2)CC1 [compound 670]	35.4
COC(=O)CC(NC(=O)c1cc2cccc(C)c2[nH]1)c1cccnc1 (stereo not drawn) [compound 671]	35.4
Cc1cccc2cc(C(=O)N[C@@H]3C[C@H]4CC[C@@H]3CN4C(=O)CCN)[nH]c12 [compound 672]	35.9
Cc1cccc2cc(C(=O)Nc3ccccn3)[nH]c12 [compound 673]	36
Cc1cccc2cc(C(=O)NCc3cccc(CN4CCCC4)c3)[nH]c12 [compound 674]	37
CCOC(=O)C(NC(=O)c1cc2cccc(C)c2[nH]1)C(F)(F)F (stereo not drawn) [compound 675]	37.7
COC(=O)C[C@H](NC(=O)c1cc2cccc(C)c2[nH]1)c1cccnc1 [compound 676]	38.1
COC(=O)CC(NC(=O)c1cc2cccc(C)c2[nH]1)c1ccccc1C (stereo not drawn) [compound 677]	39.5
Cc1cccc2cc(C(=O)NCC(O)C(F)(F)F)[nH]c12 (stereo not drawn) [compound 678]	39.7
Cc1cccc2cc(C(=O)Nc3ccccc3C3CCC(=O)N3)[nH]c12 (stereo not drawn) [compound 679]	43.1
Cc1cccc2cc(C(=O)NC(c3ncccn3)C3CC3)[nH]c12 (stereo not drawn) [compound 680]	44.8
COc1cc(OC)cc(C(O)CNC(=O)c2cc3cccc(C)c3[nH]2)c1 (stereo not drawn) [compound 681]	45
CNC(=O)CC(NC(=O)c1cc2cccc(C)c2[nH]1)c1ncccc1C (stereo not drawn) [compound 682]	45.4

SMILES	IC50 [µM]
COC(=O)C[C@H](NC(=O)c1cc2cccc(C)c2[nH]1)c1ccc(Cl)cc1 [compound 683]	48.2
Cc1cccc2cc(C(=O)N3CCc4ccccc4C3)[nH]c12 [compound 684]	> 50
Cc1cccc2cc(C(=O)NC3C4CCC3CC(NC(=O)CCN)C4)[nH]c12 (stereo not drawn) [compound 685]	50.5
Cc1ccccc1C(O)CNC(=O)c1cc2cccc(C)c2[nH]1 (stereo not drawn) [compound 686]	51.3
Cc1cccc2cc(C(=O)N[C@@H](c3ccccc3)C(F)(F)F)[nH]c12 [compound 687]	51.6
Cc1csc(C(C)NC(=O)c2cc3cccc(C)c3[nH]2)n1 (stereo not drawn) [compound 688]	52.1
Cc1cccc2cc(C(=O)NC(c3cccnc3)C3CC3)[nH]c12 (stereo not drawn) [compound 689]	53.3
COC(=O)C[C@H](NC(=O)c1cc2cccc(C)c2[nH]1)c1ccccc1 [compound 690]	55.8
Cc1cccc2cc(C(=O)Nc3ccc(CN4CCOCC4)cc3)[nH]c12 [compound 691]	56.2
Cc1cccc2cc(C(=O)N[C@@H](CO)Cc3ccccc3)[nH]c12 [compound 692]	56.9
Cc1cccc2cc(C(=O)NCc3ccnn3C)[nH]c12 [compound 693]	58.9
COC(=O)C[C@@H](NC(=O)c1cc2cccc(C)c2[nH]1)C(=O)OC [compound 694]	62.1
COc1cccc(C(O)CNC(=O)c2cc3cccc(C)c3[nH]2)c1 (stereo not drawn) [compound 695]	62.1
NCCC(=O)N[C@H]1CC[C@H](NC(=O)c2cc3cccc(Cl)c3[nH]2)CC1 [compound 697]	62.8
CC(=O)N[C@H]1CC[C@H](NC(=O)c2cc3cccc(C)c3[nH]2)CC1 [compound 698]	63
Cc1cccc2cc(C(=O)NC3Cc4ccccc4NC3=O)[nH]c12 (stereo not drawn) [compound 699]	66.7
CCOC(=O)CC(NC(=O)c1cc2cccc(C)c2[nH]1)c1ccncc1 (stereo not drawn) [compound 700]	68.9
COC(=O)C(NC(=O)c1cc2cccc(C)c2[nH]1)c1ccccc1 (stereo not drawn) [compound 701]	69.2
Cc1oncc1CNC(=O)c1cc2cccc(C)c2[nH]1 [compound 702]	69.6
Cc1cccc2cc(C(=O)N[C@H](CO)c3ccccc3)[nH]c12 [compound 703]	70.7
Cc1cccc2cc(C(=O)NC3CCC(=O)Nc4ccccc43)[nH]c12 (stereo not drawn) [compound 704]	70.9
Cc1cccc2cc(C(=O)NC(CO)c3ccccc3)[nH]c12 (stereo not drawn) [compound 705]	71.6
NC1CCC(NC(=O)c2cc3cccc(Br)c3[nH]2)CC1 (stereo not drawn) [compound 706]	71.9
COC(=O)CC(NC(=O)c1cc2cccc(C)c2[nH]1)c1cccc(F)c1 (stereo not drawn) [compound 707]	72
COC(=O)C[C@H](NC(=O)c1cc2cccc(C)c2[nH]1)C(=O)OC [compound 708]	74
Cc1cccc2cc(C(=O)NCc3cccc(CN4CCOCC4)c3)[nH]c12 [compound 709]	78.4

Continued by falling IC50, values first:

IC50 [µM]	SMILES
27.4	COC(=O)CC(NC(=O)c1cc2cccc(C)c2[nH]1)c1cccc(OC)c1 (stereo not drawn) [compound 659]
26.8	COC(=O)C[C@@H](NC(=O)c1cc2cccc(C)c2[nH]1)c1cccnc1 [compound 658]
25.1	Cc1cccc2cc(C(=O)NC3C[C@@H]4CC[C@H]3C4)[nH]c12 (stereo partly drawn) [compound 654]
25.1	Cc1c(C(=O)N[C@H]2CC[C@H](NC(=O)CCN)CC2)[nH]c2c(C)cccc12 [compound 655]
24.8	Cc1cccc2cc(C(=O)NC(C)c3ccc(-n4cccn4)cc3)[nH]c12 (stereo not drawn) [compound 652]
22.3	COC(=O)CC(NC(=O)c1cc2cccc(C)c2[nH]1)c1ccco1 (stereo not drawn) [compound 648]
22.3	COC(=O)CC(NC(=O)c1cc2cccc(C)c2[nH]1)c1ccsc1 (stereo not drawn) [compound 649]
20.3	Cc1cccc2cc(C(=O)NC3CCCN(S(=O)(=O)CCCN)C3)[nH]c12 (stereo not drawn) [compound 646]
19.9	Cc1cccc2cc(C(=O)N(C)[C@H]3CC[C@H](NC(=O)CCN)CC3)[nH]c12 [compound 645]
19.5	Cc1ccc(C)c2[nH]c(C(=O)N[C@H]3CC[C@H](NC(=O)CCN)CC3)cc12 [compound 644]
18.6	Cc1cccc2cc(C(=O)NC(c3cccc(F)c3)C(F)(F)F)[nH]c12 (stereo not drawn) [compound 642]
18.6	Cc1cccc2cc(C(=O)NC3(c4cccnc4)CC3)[nH]c12 [compound 643]
18.5	Cc1cccc2cc(C(=O)NC3CCN(C(=O)CCCN)CC3)[nH]c12 [compound 639]
18.5	Cc1cccc2cc(C(=O)NC3CC4CCC(C3)C4NC(=O)CCN)[nH]c12 (stereo not drawn) [compound 640]
18.5	Cc1cccc2cc(C(=O)N[C@H]3CC[C@@](C)(NC(=O)CCN)CC3)[nH]c12 [compound 641]
18.1	Cc1cccc2cc(C(=O)NCc3ccccc3N(C)C)[nH]c12 [compound 638]

IC50 [µM]	SMILES
17.5	Cc1cccc2cc(C(=O)NC(c3ccccn3)c3ccccn3)[nH]c12 [compound 637]
16.5	Cc1cccc2cc(C(=O)NCCc3ccccc3-c3ccccc3CN)[nH]c12 [compound 635]
16.3	COC(=O)C[C@@H](NC(=O)c1cc2cccc(C)c2[nH]1)c1cccc(Cl)c1 [compound 634]
16.2	Cc1cccc2cc(C(=O)Nc3cccc(CN4CCOCC4)n3)[nH]c12 [compound 633]
15.6	Cc1cccc2cc(C(=O)Nc3ccncc3)[nH]c12 [compound 632]
15.3	Cc1cccc2cc(C(=O)N[C@H]3C[C@H]4CC[C@@H]3CN4C(=O)CCN)[nH]c12 [compound 631]
14.6	CCOC(=O)C(CC1CCC1)NC(=O)c1cc2cccc(C)c2[nH]1 (stereo not drawn) [compound 630]
14.5	Cc1cccc2cc(C(=O)N[C@H]3CC[C@](C)(NC(=O)CCN)CC3)[nH]c12 [compound 629]
13.3	CCOC(=O)N1CCC(NC(=O)c2cc3cccc(C)c3[nH]2)CC1 [compound 628]
13.2	Cc1cccnc1C(CN(C)C)NC(=O)c1cc2cccc(C)c2[nH]1 (stereo not drawn) [compound 627]
12.5	Cc1cccc2cc(C(=O)NC3CCCN(c4ncccn4)C3)[nH]c12 (stereo not drawn) [compound 626]
11	Cc1cccc2cc(C(=O)N[C@H]3C[C@@H]4CC[C@H]3CN4C(=O)CCCN)[nH]c12 [compound 625]
10.9	Cc1c(CN2CCOCC2)cccc1NC(=O)c1cc2cccc(C)c2[nH]1 [compound 624]
0.5	Cc1ccc(F)c2cc(C(=O)NC3C(=O)N(C)CCc4ccccc43)[nH]c12 (stereo not drawn) [compound 390]
0.2	Cc1ccc(F)c2cc(C(=O)Nc3cccc(N4C5CCC4CN(C)C5)c3)[nH]c12 [compound 349]
